Measurements published in PMC9696794, “Synthesis and Antimicrobial Activity of Short Analogues of the Marine Antimicrobial Peptide Turgencin A: Effects of SAR Optimizations, Cys-Cys Cyclization and Lipopeptide Modifications” (International Journal of Molecular Sciences, 2022).
≈ marks a conversion by molar mass, not a printed value. Where a SMILES comes first, the peptide text is derived from it. Bridges are numbered along the chain shown (N, C = ends). The star is where a group is joined. Lauroyl = CCCCCCCCCCCC(=O)*

Legend:
[1] = system: C. glutamicum (Cg, ATCC 13032); test: microbe, parasite or virus in culture; type: cell-based, Corynebacterium glutamicum; details: ATCC 13032, 24 h
Outline: (§1)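 Cultures grown in Mueller–Hinton broth were adjusted by OD600 to 2.5–3 × 10^4 CFU/mL and mixed with two-fold peptide dilutions from 256 to 1 µg/mL. Plates were incubated at 35 °C with OD595 monitored every hour for 24 h.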

[2] = system: B. subtilis (Bs, ATCC 23857); test: microbe, parasite or virus in culture; type: cell-based, Bacillus subtilis; details: ATCC 23857, 24 h
Outline: as §1

[3] = system: S. aureus (Sa, ATCC 9144); test: microbe, parasite or virus in culture; type: cell-based, Staphylococcus aureus; details: ATCC 9144, 24 h
Outline: as §1

[4] = system: C. albicans (Ca, ATCC 10231); test: microbe, parasite or virus in culture; type: cell-based, Candida albicans; details: ATCC 10231, 48 h
Outline: (§2)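 Overnight cultures in potato dextrose broth with 2% glucose at 25–30 °C were diluted to approx. 4 × 10^5 spores/mL and mixed 1:1 with two-fold peptide dilutions plated at 256 to 1 µg/mL. After 48 h at room temperature, OD600 was read. MIC was the lowest concentration giving OD below 10% of the growth control, in triplicate.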

[5] = system: Gram-positive bacterial strains; details: Table S3; MIC >256 set to 256
Outline: as §1

E. coli (Ec, ATCC 25922) = test: microbe, parasite or virus in culture; type: cell-based, Escherichia coli; details: ATCC 25922, 24 h
Outline: as §1

[6] = system: P. aeruginosa (Pa, ATCC 27853); test: microbe, parasite or virus in culture; type: cell-based, Pseudomonas aeruginosa; details: ATCC 27853, 24 h
Outline: as §1

[7] = system: fungi (A. pullulans, C. albicans, Rhodotorula sp.); test: Antifungal MIC assay, all fungi together (range or geometric mean); type: cell-based; details: Table S3; MIC >128 set to 128
Outline: as §2

Rhodotorula sp. (Rh) = test: microbe, parasite or virus in culture; type: cell-based; details: 48 h
Outline: as §2

all bacterial strains = test: Antibacterial MIC assay, all bacterial strains together (range or geometric mean); type: cell-based; details: for GM (geometric mean of the MIC values against all bacterial strains): Table 1, six bacterial strains; for GM of MIC Tot. bact.: Table S3, all bacterial test strains, MIC >256 set to 256
Outline: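 Broth microdilution in Mueller–Hinton broth against B. subtilis, C. glutamicum, S. aureus, S. epidermidis RP62A, E. coli and P. aeruginosa; inoculum 2.5–3 × 10^4 CFU/mL, 35 °C, OD595 read hourly for 24 h. MIC: lowest peptide concentration giving OD below 10% of growth control; geometric mean across strains, triplicate.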

[8] = system: S. epidermidis RP62A (Se, ATCC 35984); test: microbe, parasite or virus in culture; type: cell-based, Staphylococcus epidermidis; details: ATCC 35984, 24 h
Outline: as §1

[9] = system: E. coli MC4100 (wild type, WT); test: microbe, parasite or virus in culture; details: wild type
Outline: (§3)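 Broth microdilution in Mueller–Hinton medium, 2.5–3 × 10^4 CFU/mL inoculum, two-fold peptide dilutions from 256 to 1 µg/mL, 35 °C with OD595 read hourly for 24 h. MIC is the lowest concentration giving OD below 10% of the untreated growth control; run in triplicate.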

[10] = system: E. coli NR698 (outer membrane permeable mutant, imp4213); test: microbe, parasite or virus in culture; details: MC4100 NR698 imp4213, deficient outer membrane
Outline: as §3

[11] = system: Gram-negative bacterial strains (E. coli and P. aeruginosa); test: Antibacterial MIC assay, Gram-negative strains together (range or geometric mean); type: cell-based; details: Table S3; MIC >256 set to 256
Outline: as §1

A. pullulans (Ap) = test: microbe, parasite or virus in culture; type: cell-based, Aurobasidium pollulans; details: 48 h
Outline: as §2

[12] = system: human red blood cells (RBC); test: Haemolytic activity assay; type: cell-based; details: for Selectivity index (SI) G+: EC50/GM of Gram-positive strains; for RBC Tox. (EC50), haemolytic activity: human RBC, 1 h, 37 °C, concentration giving 50% haemolysis; for Selectivity index (SI) G-: EC50/GM of Gram-negative strains; for Selectivity index (SI) Fungi: EC50/GM of fungi; for SI (selectivity index = EC50/GM): haemolytic EC50 over GM of MIC against all bacterial strains, Table 1
Outline: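 Washed human erythrocytes (1% hematocrit final) incubated 1 h at 37 °C with agitation with lipopeptides at 500–3.9 μM in PBS (≤1% DMSO), duplicates. Haemoglobin release read at 545 nm relative to 0.1% Triton X-100; EC50 is 50% haemolysis, averaged from three experiments.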

[13] = Table S3, highest tested concentration used where EC50 above it

SMILES	Antimicrobial Activity (MIC) Gram + Cg [1] [µg/mL]	Antimicrobial Activity (MIC) Gram + Bs [2] [µg/mL]	Antimicrobial Activity (MIC) Gram + Sa [3] [µg/mL]	Antimicrobial Activity (MIC) Fungi Ca [4] [µg/mL]	GM of MIC G+ [5] [µg/mL]	Antimicrobial Activity (MIC) Gram − Ec (E. coli (Ec, ATCC 25922)) [µg/mL]	Antimicrobial Activity (MIC) Gram − Pa [6] [µg/mL]	GM of MIC Fungi [7] [µg/mL]	Antimicrobial Activity (MIC) Fungi Rh (Rhodotorula sp. (Rh)) [µg/mL]	GM (geometric mean of the MIC values against all bacterial strains) (all bacterial strains) [µg/mL]	GM of MIC Tot. bact. (all bacterial strains) [µg/mL]	Antimicrobial Activity (MIC) Gram + Se [8] [µg/mL]	MIC E. coli MC4100 (WT) [9] [µg/mL]	MIC E. coli NR698 (mutant) [10] [µg/mL]	GM of MIC G- [11] [µg/mL]	Antimicrobial Activity (MIC) Fungi Ap (A. pullulans (Ap)) [µg/mL]	Selectivity index (SI) G+ [12, 13]	RBC Tox. (EC50), haemolytic activity [12] [µg/mL]	Selectivity index (SI) G- [12, 13]	Selectivity index (SI) Fungi [12, 13]	other results
CCCCCCCCCCCC(=O)N[C@H]1CSSC[C@@H](C(=O)N[C@@H](CCCNC(=N)N)C(=O)N[C@@H](CC(C)C)C(N)=O)NC(=O)[C@H](CCCNC(=N)N)NC(=O)[C@H](Cc2c[nH]c3ccccc23)NC(=O)[C@H](Cc2c[nH]c3ccccc23)NC(=O)CNC(=O)[C@H](Cc2c[nH]c3ccccc23)NC(=O)[C@H](CCCNC(=N)N)NC(=O)[C@H](CCCNC(=N)N)NC(=O)CNC1=O [Peptide C12-cTurg-6, C12- (CGRRWGWWRC)RL-NH2] (Lauroyl-CGRRWGWWRCRL-NH2; disulfide 1-10)	8	8	16	128	10	32	32	81	64	14	14	8	16 (≈ 8.82 µM)	16 (≈ 8.82 µM)	32	64	1	9	–	–	Selectivity index (SI) Tot. bact. ([12]; Table S3, EC50/GM of all bacterial strains, highest tested concentration used where EC50 above it): 1
CC(C)C[C@H](NC(=O)[C@H](CCCCN)NC(=O)[C@@H]1CSSC[C@H](N)C(=O)NCC(=O)N[C@@H](CCCCN)C(=O)N[C@@H](CCCCN)C(=O)N2CCC[C@H]2C(=O)N[C@@H](Cc2c[nH]c3ccccc23)C(=O)N[C@@H](Cc2c[nH]c3ccccc23)C(=O)N[C@@H](Cc2c[nH]c3ccccc23)C(=O)N[C@@H](CCCCN)C(=O)N1)C(N)=O [cTurg-4] (H-CGKKPWWWKCKL-NH2; disulfide 1-10; N-terminus assumed)	4	8	64	64	16	64	256	40	32	32	32	32	16 (≈ 10.3 µM)	8 (≈ 5.13 µM)	128	32	> 67	–	> 8	> 26	SI (selectivity index = EC50/GM) [12]: >33
CC(C)C[C@H](NC(=O)[C@H](CCCCN)NC(=O)[C@@H]1CSSC[C@H](N)C(=O)NCC(=O)N[C@@H](CCCCN)C(=O)N[C@@H](CCCCN)C(=O)N[C@@H](Cc2c[nH]c3ccccc23)C(=O)N[C@@H](Cc2c[nH]c3ccccc23)C(=O)NCC(=O)N[C@@H](Cc2c[nH]c3ccccc23)C(=O)N[C@@H](CCCCN)C(=O)N1)C(N)=O [cTurg-2] (H-CGKKWWGWKCKL-NH2; disulfide 1-10; N-terminus assumed)	4	8	32	32	11	64	64	32	32	20	20	16	16 (≈ 10.5 µM)	8 (≈ 5.26 µM)	64	32	> 92	>1045	> 16	> 33	SI (selectivity index = EC50/GM) [12]: >52
CCCCCCCCCCCC(=O)N[C@H]1CSSC[C@@H](C(=O)N[C@@H](CCCCN)C(=O)N[C@@H](CC(C)C)C(N)=O)NC(=O)[C@H](CCCCN)NC(=O)[C@H](Cc2c[nH]c3ccccc23)NC(=O)CNC(=O)[C@H](Cc2c[nH]c3ccccc23)NC(=O)[C@H](Cc2c[nH]c3ccccc23)NC(=O)[C@H](CCCCN)NC(=O)[C@H](CCCCN)NC(=O)CNC1=O [Peptide C12-cTurg-2, C12- (CGKKWWGWKC)KL-NH2] (Lauroyl-CGKKWWGWKCKL-NH2; disulfide 1-10)	8	4	8	64	7	16	16	40	32	9	9	8	8 (≈ 4.7 µM)	8 (≈ 4.7 µM)	16	32	5	32	2	1	SI (selectivity index = EC50/GM) [12]: 4
